“Also recorded” adds a separate entry of the source.
Legend:
hFL-HCC = experiment: Treatment of the hFL-HCC patient from whom TU-2010 was derived; type: in vivo, human; conditions: for clinical response of the patient's tumor: one patient, metastatic hFL-HCC; for disease course under treatment / tolerability in the patient: Paclitaxel and thalidomide given together, chosen from sensitivity studies
hFL-HCC cells of TU-2010 [1] = experiment: Cell proliferation assay (WST-1) on monolayer cultures of hFL-HCC cells; type: cell-based, human
Protocol: For cell proliferation assays, 3×10^4 hFL-HCC cells of TU-2010 were depleted of host mesenchymal cells by magnetic sorting of xenotransplantable tumor cell suspension and then were seeded into each well of a 96-well plate and cultured overnight with Kubota's Medium+5% FBS. […] Cell proliferation was evaluated using the Cell Proliferation Reagent WST-1 (Roche Applied Science, Mannheim, Germany). After incubation at 37° C. for 2 hours, the absorbance at 450 nm was measured.

hFL-HCC cells of TU-2010 [2] = experiment: Spheroid formation assay; type: cell-based, human; conditions: spheroids in serum-free Kubota's Medium, low attachment plates
Protocol: For secondary spheroid formation assays, the 1st spheroids were collected, subsequently dissociated with NeuroCult Chemical Dissociation Kit ([…] Technologies). Cell suspension was centrifuged at 700 rpm 10 min and resuspended with KM. After 2 weeks, the number of spheroids (100 μm>) were counted.

With `O=c1[nH]cc(F)c(=O)[nH]1` [5-FU] the “clinical response of the patient's tumor” value (hFL-HCC) was “limited or no response”.
In the case of `CS(=O)(=O)c1ccc(C(=O)Nc2ccc(Cl)c(-c3ccccn3)c2)c(Cl)c1` [GDC-0449, Vismodegib], the “suppression of survival and proliferation (growth) of hFL-HCC cells” value (hFL-HCC cells of TU-2010 [1]; 4 μM and especially 20 μM, drug added for 3 days) is reported as “strongly inhibited; also recorded: suppress survival and proliferation” and the “suppression of hFL-HCC survival and growth in spheroid cultures compared with monolayer cultures” value (shortened to “suppression … compared with monolayer cultures”) (hFL-HCC cells of TU-2010 [2]) is reported as “even more sensitive to inhibition; also recorded: far more effective”.
In the case of `CC(=O)O[C@H]1C(=O)[C@@]2(C)[C@H]([C@H](OC(=O)c3ccccc3)[C@]3(O)C[C@H](OC(=O)[C@H](O)[C@@H](NC(=O)c4ccccc4)c4ccccc4)C(C)=C1C3(C)C)[C@]1(OC(C)=O)CO[C@@H]1C[C@@H]2O` [Paclitaxel], the “disease course under treatment” value (hFL-HCC) is reported as “continued disease progression” and the “tolerability in the patient” value (hFL-HCC) is reported as “poorly tolerated”.
In the case of `O=C(CCCCCCC(=O)Nc1ccccc1)NO` [SAHA, suberoylanilide hydroxamic acid], the “suppression … compared with monolayer cultures” value (hFL-HCC cells of TU-2010 [2]) is reported as “even more sensitive to inhibition”.
In the case of `O=C(CCCCCCC(=O)NO)NO` [SBHA, suberic bis-hydroxamic acid], the “inhibitory effect on hFL-HCC cell survival and growth” value (hFL-HCC cells of TU-2010 [1]; 10 μM and 20 μM, drug added for 3 days) is reported as “strong inhibitory effects”, the “inhibition of hFL-HCC cell growth” value (hFL-HCC cells of TU-2010 [1]; 10 μM and 50 μM) is reported as “strongly inhibited” and the “suppression … compared with monolayer cultures” value (hFL-HCC cells of TU-2010 [2]) is reported as “even more sensitive to inhibition”.
For `N.N.[Cl][Pt][Cl]` [cisplatinum], the “clinical response of the patient's tumor” value (hFL-HCC) was “limited or no response”.
With `COc1cccc2c1C(=O)c1c(O)c3c(c(O)c1C2=O)C[C@@](O)(C(=O)CO)C[C@@H]3O[C@H]1C[C@H](N)[C@H](O)[C@H](C)O1` [doxorubicin] the “clinical response of the patient's tumor” value (hFL-HCC) was “limited or no response”.
With `Nc1ccn([C@@H]2O[C@H](CO)[C@@H](O)C2(F)F)c(=O)n1` [gemcitabine] the “clinical response of the patient's tumor” value (hFL-HCC) was “limited or no response”.
With `CNC(=O)c1cc(Oc2ccc(NC(=O)Nc3ccc(Cl)c(C(F)(F)F)c3)cc2)ccn1` [sorafenib] the “clinical response of the patient's tumor” value (hFL-HCC) was “limited or no response”.
`O=C1CCC(N2C(=O)c3ccccc3C2=O)C(=O)N1` (centres unmarked) [thalidomide] was tested, and the “disease course under treatment” value (hFL-HCC) was “continued disease progression”, the “tolerability in the patient” value (hFL-HCC) was “poorly tolerated” and the “clinical response of the patient's tumor” value (hFL-HCC) was “limited or no response”.
bevacizumab was tested, and the “clinical response of the patient's tumor” value (hFL-HCC) was “limited or no response”.

— US11932877B2, “Human fibrolamellar hepatocellular carcinomas (hFL-HCCs)” (priority 2015, dated 2024)
